Measured values as given in patent publication US12558357B2, “Tetrahydroquinazoline derivatives as selective cytotoxic agents” (Merck Sharp & Dohme LLC, priority 2020, dated 2026).

Test system: PBMCs infected with VSV-G pseudotyped HIV virus (VSV-G/pNLG1-P2A-ΔEnv)
Assay: cells
Format: cell-based, human
Conditions: Homo sapiens, PBMC, read-out: EC50 (HIV-TACK cell kill activity)

Row | Compound | EC50
1 | COc1ccn(Cc2cc3c(cc2F)[C@@](C#CC2CC2)(C(C)(F)F)NC(=O)N3)c(=O)c1 [Example 84, (S)-4-(cyclopropylethynyl)-4-(1,1-difluoroethyl)-6-fluoro-7-((4-methoxy-2-oxopyridin-1(2H)-yl)methyl)-3,4-dihydroquinazolin-2(1H)-one] | 0.03 µM
2 | Cc1cn(Cc2cc3c(cc2F)[C@@](C#CC2CC2)(C(C)(F)F)NC(=O)N3)c(=O)c(N)n1 [Example 85, (S)-7-((3-amino-5-methyl-2-oxopyrazin-1(2H)-yl)methyl)-4-(cyclopropylethynyl)-4-(1,1-difluoroethyl)-6-fluoro-3,4-dihydroquinazolin-2(1H)-one] | 0.014 µM
